Measurements as given in patent US20110269790A1, “NOVEL THIENOPYRIDINES AS PHARMACOLOGICALLY ACTIVE AGENTS” (priority 2009, published 2011).
“And” between values parts separate entries of the source, which are not always exact repeats. Identical values can stand only once.

System: nitric oxide
Test: Nitric oxide inhibition assay, sodium nitroprusside method
Conditions: Griess reagent, vs control

| SMILES | NO release in Sodium Nitroprusside method |
| --- | --- |
| Cc1sc2nc3c(c(N)c2c1C)CCCCC3 [BN-4, 2,3-dimethyl-6,7,8,9-tetrahydro-5H-cyclohepta[b]thieno[3,2-e]pyridin-4-amine] | significantly inhibited |

System: not listed separately
Test: Acute oral toxicity, main study in rats
Conditions: both sexes, Albino Wistar, rat, in vivo, single oral dose, read-out: Maximum tolerated dose
Method: (§1) In the preliminary sighting study, the effect of various dosed administered to single animals of each sex was investigated in a sequential manner. The sighting study generally yields information on the dose-toxicity relationship including an estimate of the minimum lethal dose. In the main study, the test article is administered to groups of 5 males and 5 female animals at one of the fixed doses (5, 50, 500 and 2000 mg/Kg). The dose is derived from the sighting study. It is immediately below that which is expected to result in mortality. If evident toxicity is not seen at the chosen dose level, the substance should be retested at the next higher dose level. If at the initial dose level, animals die, or a severe toxicity reaction requires removal of animals from the study for animal welfare reasons, the substance is retested at the next lower dose level. Consideration of data from the both sighting study and the main study enabled a judgment to be made on determination of maximum tolerated dose.
(§2) At least 10 animals (5 males and 5 females) for each species were used for dose level in this study. Animals were fasted overnight and test articles were administered as 1% gum acacia suspension orally. The dose used in this study is selected from one of four levels 5 mg/kg, 50 mg/kg, 500 mg/kg and 2000 mg/kg i.e. the dose that produced evident toxicity but not mortality in sighting study. […] Different biochemical and hematology parameters observed on “0’ day and on termination day .During main study physical parameters like feed consumption and body weight increase were also recorded. 5 males and females were taken, and toxicity study conducted for the compounds. […] Hematology and biochemical parameters were well and within normal range when compared with 0 day in rats and mice. Based on above observations synthetic compounds were safe upto 2000 mg/kg.

| SMILES | MTD at 14 days [mg/kg] |
| --- | --- |
| Cc1sc2nc3c(c(N)c2c1C)CCCCC3 [BN-4, 2,3-dimethyl-6,7,8,9-tetrahydro-5H-cyclohepta[b]thieno[3,2-e]pyridin-4-amine] | > 2000 |

System: not listed separately
Test: Acute oral toxicity, main study in mice
Conditions: both sexes, mouse, in vivo, single oral dose, read-out: Maximum tolerated dose
Method: as §1, §2

| SMILES | MTD at 14 days [mg/kg] |
| --- | --- |
| Cc1sc2nc3c(c(N)c2c1C)CCCCC3 [BN-4, 2,3-dimethyl-6,7,8,9-tetrahydro-5H-cyclohepta[b]thieno[3,2-e]pyridin-4-amine] | > 2000 |

System: Wistar rats
Test: Arachidonic acid induced paw edema
Format: in vivo, rat
Conditions: 50 mg/kg, one hour after Arachidonic acid
Method: Paw edema was produced in rats by Arachidonic acid following the method of Dimartino et al. (1987) and Laura segura et al., 1998. wistar rats weighing between 130-150 g were divided in to groups of six animals (n=6).A volume of 0.1 ml of 0.5% Arachidonic acid in 0.2M Carbonate buffer was injected in to the plantar side of the right hind paw of the rat. Paw volumes were measured using plethysmometer before and after one hour Arachidonic acid injection. Results obtained were compared with those obtained from the control group, which received vehicle only.

| SMILES | % Inhibition [%] | Percentage Swelling (50 mg/kg) [%] |
| --- | --- | --- |
| Cc1sc2nc3c(c(N)c2c1C)CCCCC3 [BN-4, 2,3-dimethyl-6,7,8,9-tetrahydro-5H-cyclohepta[b]thieno[3,2-e]pyridin-4-amine] | 19.13 ± 2.01 | 55.32 ± 2.06 |

Same assay, conditions: 100 mg/kg, one hour after Arachidonic acid

| SMILES | % Inhibition [%] | Percentage Swelling (100 mg/kg) [%] |
| --- | --- | --- |
| Cc1sc2nc3c(c(N)c2c1C)CCCCC3 [BN-4, 2,3-dimethyl-6,7,8,9-tetrahydro-5H-cyclohepta[b]thieno[3,2-e]pyridin-4-amine] | 29.94 ± 3.37 | 48.54 ± 2.2 |

Same assay, conditions: 200 mg/kg, one hour after Arachidonic acid

| SMILES | % Inhibition | Percentage Swelling (200 mg/kg) [%] |
| --- | --- | --- |
| Cc1sc2nc3c(c(N)c2c1C)CCCCC3 [BN-4, 2,3-dimethyl-6,7,8,9-tetrahydro-5H-cyclohepta[b]thieno[3,2-e]pyridin-4-amine] | 44.92% and 44.92 ± 3.10% | 37.50 ± 1.60 |

System: rats
Test: Acute oral toxicity, sighting study in rats
Format: in vivo, rat
Conditions: single oral doses 5, 50, 500, and 2000 mg/kg, observed 14 days
Method: In the series of thioenopyridine derivatives compounds BN-4, BN-14 and BN-16 show good antiinflammatory potential in all models tested. […] Acute Oral Toxicity Study was conducted following OECD guidelines by fixed dose method adopted by OECD (420). The study involved preliminary sighting using small number of animals in order to derive the dose effect relation for toxicity and mortality and to provide information on dose selection for the main study.
as §1
Sighting Study: Animals were fasted overnight. Following period of fasting, the animals were weighed and were administered the test articles by oral route. After the test substance was administered food was withheld for further 3 to 4 hrs. In the sighting study, the effect of various doses was investigated in single animals of each sex. Dosing was sequential allowing at least 24 hrs before dosing the next animal. All animals were carefully observed for signs and symptoms of toxicity continuously up to 24 hrs and later up to 7 days. […] In this sighting study, the dose that produced evident toxicity but not death was identified. […]

| SMILES | Toxic symptoms and mortality, sighting study |
| --- | --- |
| Cc1sc2nc3c(c(N)c2c1C)CCCCC3 [BN-4, 2,3-dimethyl-6,7,8,9-tetrahydro-5H-cyclohepta[b]thieno[3,2-e]pyridin-4-amine] | do not show any toxic symptoms and mortality |

System: Wistar rats
Test: Freund's complete adjuvant (FCA) induced arthritis
Format: in vivo, rat
Conditions: 17th day and 21st day, 100 mg/kg, vs arthritic control

| SMILES | Arthritic scoring |
| --- | --- |
| Cc1sc2nc3c(c(N)c2c1C)CCCCC3 [BN-4, 2,3-dimethyl-6,7,8,9-tetrahydro-5H-cyclohepta[b]thieno[3,2-e]pyridin-4-amine] | significantly reduced |

System: rats
Test: Collagen induced arthritis
Format: in vivo, rat
Conditions: collagen induced study; BN compounds 100 mg/kg, Indomethacin 2.5 mg/kg
Source text: Group I—Normal Control; Group II—Arthritic control; Group III—Arthritic rats administered with Synthetic compound BN-4; Group IV—arthritic rats administered with compound BN-14; Group V—arthritic rats administered with BN-16; Group VI—arthritic rats administered with standard drug indomethacin. […] The test and indomethacin doses continued up to 21 days in FCA induced model and 24 days in collagen induced model. […] Before sacrificing the animals, blood was collected and used for estimation of total leukocyte count, TNF-α and IL-1β. […] In collagen induced study the total WBC count was analyzed by using cell counter and count as follows; […]

| SMILES | Total WBC count |
| --- | --- |
| Cc1sc2nc3c(c(N)c2c1C)CCCCC3 [BN-4, 2,3-dimethyl-6,7,8,9-tetrahydro-5H-cyclohepta[b]thieno[3,2-e]pyridin-4-amine] | 13.57±0.63 |
